# Reference: the supplement of paper PMC10307832
# Experiments:
# Assay in all cases: relative viability (nuclei count vs DMSO), 5 days (fraction); higher = more cells survive
# BX 795 + Decitabine = compound: O=C(NCCCNc1nc(Nc2cccc(NC(=O)N3CCCC3)c2)ncc1I)c1cccs1 [BX 795] + Nc1ncn([C@H]2C[C@H](O)[C@@H](CO)O2)c(=O)n1 [Decitabine] (partner 2 µM)
# Outline: (§1)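 For relative viability, nuclei counts in treated wells were divided by those in vehicle wells. Lung cancer cell lines had been pin-tool dosed in 1536-well plates the day after seeding and cultured for 5 days, then fixed and stained in one step (final 0.05% Triton X-100, 1% formaldehyde, 1 ug/ml Hoechst) and imaged at 4×. Doses were one drug alone or a fixed anchor-drug dose plus five library-drug doses (not always all listed) in √10 steps, and values are duplicate-plate medians.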
# BX 795 + Vorinostat = compound: O=C(NCCCNc1nc(Nc2cccc(NC(=O)N3CCCC3)c2)ncc1I)c1cccs1 [BX 795] + O=C(CCCCCCC(=O)Nc1ccccc1)NO [Vorinostat] (partner 1 µM)
# Outline: as §1
# BX 795 + Lapatinib = compound: O=C(NCCCNc1nc(Nc2cccc(NC(=O)N3CCCC3)c2)ncc1I)c1cccs1 [BX 795] + CS(=O)(=O)CCNCc1ccc(-c2ccc3ncnc(Nc4ccc(OCc5cccc(F)c5)c(Cl)c4)c3c2)o1 [Lapatinib] (partner 2 µM)
# Outline: as §1
# BX 795 + Linsitinib = compound: O=C(NCCCNc1nc(Nc2cccc(NC(=O)N3CCCC3)c2)ncc1I)c1cccs1 [BX 795] + C[C@]1(O)C[C@@H](c2nc(-c3ccc4ccc(-c5ccccc5)nc4c3)c3c(N)nccn32)C1 [Linsitinib] (partner 1 µM)
# Outline: as §1
# BX 795 + Navitoclax = compound: O=C(NCCCNc1nc(Nc2cccc(NC(=O)N3CCCC3)c2)ncc1I)c1cccs1 [BX 795] + CC1(C)CCC(c2ccc(Cl)cc2)=C(CN2CCN(c3ccc(C(=O)NS(=O)(=O)c4ccc(N[C@H](CCN5CCOCC5)CSc5ccccc5)c(S(=O)(=O)C(F)(F)F)c4)cc3)CC2)C1 [Navitoclax] (partner 0.5 µM)
# Outline: as §1
Cell Line,relative viability (BX 795 + Decitabine; first compound 0.04 µM),relative viability (BX 795 + Decitabine; first compound 0.1265 µM),relative viability (BX 795 + Decitabine; first compound 0.4 µM),relative viability (BX 795 + Decitabine; first compound 1.265 µM),relative viability (BX 795 + Vorinostat; first compound 0.04 µM),relative viability (BX 795 + Vorinostat; first compound 0.1265 µM),relative viability (BX 795 + Vorinostat; first compound 0.4 µM),relative viability (BX 795 + Vorinostat; first compound 1.265 µM),relative viability (BX 795 + Lapatinib; first compound 0.04 µM),relative viability (BX 795 + Lapatinib; first compound 0.1265 µM),relative viability (BX 795 + Lapatinib; first compound 0.4 µM),relative viability (BX 795 + Lapatinib; first compound 1.265 µM),relative viability (BX 795 + Linsitinib; first compound 0.04 µM),relative viability (BX 795 + Linsitinib; first compound 0.1265 µM),relative viability (BX 795 + Linsitinib; first compound 0.4 µM),relative viability (BX 795 + Linsitinib; first compound 1.265 µM),relative viability (BX 795 + Navitoclax; first compound 0.04 µM),relative viability (BX 795 + Navitoclax; first compound 0.1265 µM),relative viability (BX 795 + Navitoclax; first compound 0.4 µM),relative viability (BX 795 + Navitoclax; first compound 1.265 µM)
NCI-H358,0.351,0.236,0.339,0.183,0.716,0.661,0.434,0.138,0.455,0.376,0.429,0.296,0.679,0.705,0.601,0.228,,,,
NCI-H522,0.556,0.657,0.73,0.71,0.9,0.864,0.875,0.72,,,,,,,,,,,,
NCI-H650,0.458,0.299,0.458,0.357,0.391,0.429,0.339,0.34,0.86,0.873,0.952,0.689,0.752,0.739,1.03,0.549,,,,
NCI-H2170,0.542,0.47,0.48,0.443,0.942,0.985,0.824,0.817,0.26,0.28,0.262,0.289,,,,,0.674,0.62,0.659,0.53
ChaGo-K-1,0.535,0.544,0.538,0.398,0.809,0.771,0.725,0.668,,,,,,,,,0.817,0.919,0.933,0.982
NCI-H2228,,,,,0.761,0.898,0.63,0.556,0.87,1.3,0.791,0.319,1.25,0.643,0.662,0.474,0.894,0.811,0.857,0.486
NCI-H1650,0.571,0.471,0.548,0.644,0.593,0.486,0.528,0.369,0.938,0.737,0.671,0.521,,,,,1.17,1.12,1.41,0.649
IA-LM,,,,,0.79,1.06,0.992,0.892,0.94,0.994,1.5,0.544,0.615,0.452,0.769,0.626,0.755,0.725,0.952,0.52
NCI-H1792,0.546,,0.588,0.408,,,,,0.872,0.903,0.981,0.842,0.559,0.673,0.461,0.424,0.624,0.556,0.708,0.568
ABC-1,1.03,,1.3,1.49,0.961,,1.24,0.922,1.17,1.58,1.14,0.917,0.849,0.914,0.765,0.549,,,,
LCLC-103H,0.714,0.656,0.863,0.631,0.675,0.811,0.699,0.695,,,,,1.12,1.16,0.901,1.09,,,,
